Experimental data reported in ChEMBL document CHEMBL1137120, “Synthesis and biological evaluation of flavonoids as vasorelaxant agents” (2004).

species on record: Rattus norvegicus; test: Tested for vasorelaxant activity in rat thoracic aorta rings against PE-induced contractions; format: functional

SMILES	Maximal relaxation [%]
O=c1cc(-c2ccc3c(c2)OCO3)oc2cc(O)cc(O)c12	91.3
Cc1ccc(-c2cc(=O)c3c(O)cc(O)cc3o2)cc1	77.2
Cc1c(O)c(C)c2c(c1O)C(=O)C(O)C(c1ccc(O)cc1)O2 (centres undefined)	64.4
O=c1cc(-c2cccc(Br)c2)oc2cc(O)cc(O)c12	95
O=c1cc(-c2ccc(Cl)cc2)oc2cc(O)cc(O)c12	92.7
COc1cccc(-c2cc(=O)c3c(O)cc(O)cc3o2)c1	80.8
O=c1c(O[C@@H]2OC[C@@H](O)[C@H](O)[C@@H]2O)c(-c2ccc(O)c(O)c2)oc2cc(O)cc(O)c12	24.7
O=c1c(O[C@@H]2OC[C@@H](O)[C@@H](O)[C@H]2O)c(-c2ccc(O)c(O)c2)oc2cc(O)cc(O)c12	35.1
COCOc1c(-c2ccc(O)c(O)c2)oc2cc(O)cc(O)c2c1=O	71.6
O=c1cc(-c2ccccc2)oc2cc(O[C@@H]3O[C@H](CO)[C@@H](O)C(O)[C@H]3O)c(O)c(O)c12 (single isomer, unassigned)	36.2
O=c1c(O[C@@H]2O[C@H](CO)C(O)C(O)[C@H]2O)c(-c2ccc(O)c(O)c2)oc2cc(O)cc(O)c12 (single isomer, unassigned) [ISOQUERCETIN]	34
C[C@@H]1O[C@@H](OC[C@H]2O[C@@H](Oc3c(-c4ccc(O)c(O)c4)oc4cc(O)cc(O)c4c3=O)C(O)[C@@H](O)[C@@H]2O)[C@H](O)[C@H](O)[C@H]1O (single isomer, unassigned) [RUTIN]	24.7
O=c1cc(-c2ccc(O)c(O)c2)oc2cc(O)cc(O)c12 [LUTEOLIN]	70.2
O=c1c(O)c(-c2ccc(O)c(O)c2)oc2cc(O)cc(O)c12 [QUERCETIN]	45.9
